Results published in patent publication US8603999B2, “Amphiphile prodrugs” (Commonwealth Scientific and Industrial Research Organisation, priority 2008, dated 2013).

Legend:
[1] = Lyotropic phase behaviour: water penetration scans, SAXS and XRD; assay type: physicochemical; settings: for lyotropic phase behaviour in water penetration scans: concentration gradient from neat amphiphile to pure water, heated from room temperature; for d-spacing: Lc; for Lyotropic phase behaviour: particle form in water at physiological temperature
Text: Lyotropic mesophase behaviour was studied using water penetration experiments. Neat amphiphile was placed on a glass slide, melted and cooled to facilitate sample homogenization and then covered with a glass cover slip. A few drops of Milli-Q water were then introduced to the edge of the cover slip which was drawn in by capillary action resulting in a concentration gradient from pure amphiphile in the centre to pure water around the edges of the cover slip. The generated mesophases were identified by their characteristic birefringent textures. Samples were then heated at 2° C./min from room temperature to ˜99° C. using an FP90 Linkam hotstage (Linkam Scientific Instruments, England). Thermotropic phase behaviour was also examined in the similar method but in the absence of water. The phases were viewed using an Olympus GX51 inverted polarising microscope (Olympus Australia Pty. Ltd, Australia) equipped with an Olympus C-5060 digital camera for image capture. All images were taken with 100× magnification unless elsewhere stated. […] The bulk phase of the binary amphiphile/water system was prepared by weighing the appropriate amount of sample and water in a sample vial. For those samples requiring pre-treatment, the samples were quickly melted in a pre-heated temperature controlled silicon-oil heating bath prior to addition of water. […] The prepared samples were analysed using an Anton-Paar SAXSess (Graz, Austria) with PANalytical PW3830 stand-alone X-ray generator operating at 40 kv, 50 mA with a sealed-tube Cu anode (λCu—Kα=0.154 nm). The samples were loaded into a paste cell sample holder at room temperature. […] Temperature control was via a TCU Temperature Control Unit (Anton Paar). […] The scattering results were recorded and analysed by the accompanied Anton Paar software.

[2] = Particle size distribution of dispersions by dynamic light scattering; assay type: physicochemical; settings: for mean (average) particle size / particle size distribution: DLS at 25° C., 5-FCPhy and 5-FCOle after membrane extrusion, 5-FCPal solid lipid particles; for Average Particle size: dispersions used in the hydrolysis study, physiological temperature
Method: BASF) equivalent to 10% (w/w) of neat amphiphile and absolute ethanol were weighed in a sample vial. […] These crude dispersions were then passed through a series of PC membranes from the size range from 1 um to 100 nm to obtain a more uniform size distribution for the particles. The equipment used for size control is a mini-extruder (Avanti Polar Lipids, USA). […] The final concentration of colloidosomes were determined by ultra performance liquid chromatography (UPLC) and then diluted to 1 mg/mL for use in the enzyme hydrolysis study The particle size distribution and morphology of the above suspensions were determined using the method as described herein by using zetasizer and cryo-TEM characterisation methods. Solid lipid particles of prodrug 5-FCPal were prepared using mechanical methods. […] The melted prodrug and poloxamer mixture was then transferred to 40 mL of pre-warmed water upon vigorous vortexing. The mixture was then sheared with a rough homogenizer (Ultra Turrax®, T18 Basic, IKA® Werke GmbH & Co. KG, Germany) at 14,000 rpm for 10 min. The resultant dispersion was further transferred to the ultrasonic benchtop cleaner for a few hours of ultra sonication. […] Determination of the particle size distribution of the colloidosome and solid lipid particle dispersions were carried out using a Zetasizer (nano zs, Malvern, England) equipped with a He—Ne Laser (4 mw, 633 nm) and an avalanche photodiode detector. […] […] The size distribution was recorded by intensity.

[3] = test system: Carboxylesterase from porcine liver; test: Hydrolysis of prodrugs by porcine liver carboxylesterase (CES), LC/MS; settings: for SA relative to 5-FCPal: CES hydrolysis
Method: High purity Capecitabine (as solid crystals) was purchased from Xingcheng Chemphar Co., Ltd, P.R.China. […] Millipore water was used to prepare the prodrugs solutions with appropriate concentrations, while phosphate buffered saline (pH 7.4, PBS) was used in the preparation of different concentrations of enzyme.
Stock solution of Capecitabine was prepared by dissolving pure white Capecitabine into warm water. 1 mg/mL of Capecitabine solution was then further obtained by diluting the stock solution with milli-Q water. […] Prior to the experiments, prodrug particles were incubated at 37° C. for at least two weeks to achieve the equilibrium state of certain phases.
Stock solution of 10 mg/mL carboxylesterase solution was prepared by weighting 10 mg of powder enzyme in 1 mL of PBS buffer and shaking gently by hand. The concentration of the enzyme solution was adjusted to 1 mg/mL and 0.01 mg/mL by dilution of the stock solution. These solutions were used for the enzymatic hydrolysis of the prodrugs and Capecitabine respectively. […]
To measure the rate of the enzymatic reaction precisely, the starting substrate and the enzyme solution were mixed for a defined time by rapidly mixing together the two stock solutions and shaking. The time at which enzyme solution was added was taken as time zero for the hydrolysis reaction. The mixture was maintained at 37° C. throughout the experiment. The concentration of the hydrolysis product was then measured at various times using LC/MS (Finnigan LCQ Series, Thermo Scientific, USA). The time at which the sample was injected into the LC column was taken to be the reaction time for such sample. The hydrolysis progress curve showing the decrease in the concentration of original substrate was subsequently plotted.
The concentrations of prodrugs were determined using Thermo Finnigan LC/MS equipped with an atmospheric pressure chemical ionization (APCI) probe in positive ion mode. 10 μL of sample withdrawn from the reaction solution was injected directly into a Platinum EPS C18 100 Å 5u LC column with the length of 150 mm and internal diameter of 4.6 mm (Alltech, Australia). A mixture of 30% LCMS grade water and 70% Methanol was employed as mobile phase with the flow rate of 1 ml/min. The sample after the column separation was eluted to APCI source (MS full positive scan) to determine the molecular weight of the substrates. The vaporizer temperature of the APCI probe was set at 450° C. and the capillary temperature was operated at 200° C. The sample temperature was well maintained at 37° C. during the entire measurement by incubating the sample in the temperature controlled auto-sampler. Data were acquired and processed with Xcalibur Quan chromatography software.
The decreased concentration of substrate and the increased hydrolysis product 5′-dFCyd were detected based on the different retention time on chromatogram and m/z value in the MS positive scan. […] The decreased/increased ratio of reactant/5′dFCyd was determined by comparing the integration areas of the corresponding peaks.
The enzyme hydrolysis reaction was plotted as the logarithm of the ratio of original prodrug concentration to the decreased concentration of prodrug at a certain incubation time as a function of reaction time (Ln [S]0/[S] vs T).
In order to compare the enzymatic activity for each individual substrate to CES, we calculate a global reaction rate expressed as a specific activity (SA) (μmol/min/mg enzyme): SA=Δ[S]/(Δt·[CCES])
Here, as is common when discussing the SA, [CCES] is the enzyme concentration in mg/ml, Δ[S] is the substrate concentration change in μmol/ml during Δt time.

[4] = Thermal decomposition by TGA; assay type: physicochemical; settings: neat prodrug
4T1 tumour = test: Second 4T1 tumour study, daily dosing for 17 days (Example 7)
Text: Also, the dosage of both compounds was increased to 1.5 mmol for each treatment.

[5] = test system: 4T1 cells (mouse breast cancer cells); test: 4T1 mouse breast tumour in BALB/c mice, oral daily dosing for 21 days (Example 6); assay type: in vivo
Method: 90 female BALB/c were injected with 5×10^4 4T1 cells (mouse breast cancer cells) in the second mammary fat pad on the right hand side. The tumour was allowed to form for 6 days prior to drug administration. On day 6, tumours were palpable in most of the mice. […] Mice were placed into groups of 6, and 15 different treatments were administered orally on a daily basis for 21 days.
The length and breadth of the tumours were measured and recorded on day 1, 4, 7, 14, and 21 of the drug administration. On Day 22, mice were euthanized. Blood was collected via cardiac puncture, followed by removal of the tumour, liver, spleen and kidney for histological analysis. Lungs were injected with indium ink prior to removal to allow for quantification of the number of lung metastasis in each animal.

[6] = porcine liver CES, 37° C., enzyme 0.5 mg/mL for prodrugs
[7] = porcine liver CES, 37° C., enzyme 0.5 mg/mL for prodrugs, 0.005 mg/ml for Capecitabine
[8] = in excess water with 2.3% F127 and 4.87% Ethanol, SAXS, 37° C.
[9] = in excess water, RT (25° C.), SAXS

| Molecule | Lyotropic phase behaviour [1] | mean (average) particle size [2] | Average Particle size [2] | Specific Activity (SA) at time t = 24 h [3, 6] | Specific Activity (SA) at time t = 1 h [3, 7] | Specific Activity (SA) at time t = 2 h [3, 7] | Specific Activity (SA) at time t = 6 h [3, 7] | temperature at which decomposition starts (TGA) [4] | lyotropic phase behaviour in water penetration scans [1] | Lattice parameter ([1]; in excess water, 37° C., SAXS) | Lattice parameter [1, 9] | particle size distribution [2] | tumours from animals sacrificed at 17 days (images) (4T1 tumour; FIG. 19) | SA relative to 5-FCPal [3] | Specific Activity (SA) at time t = 12 h [3, 6] | phase in excess water ([1]; physiological temperatures) | further results |
| --- | --- | --- | --- | --- | --- | --- | --- | --- | --- | --- | --- | --- | --- | --- | --- | --- | --- |
| CCCCCCCC/C=C\CCCCCCCCOC(=O)Nc1nc(=O)n(C2OC(C)C(O)C2O)cc1F (stereo not drawn) [Prodrug 5-FCOle, 5′-deoxy-5-fluoro-N^4-(cis-9-octadecenyl-1-oxycarbonyl)cytidine] | Cubosome | 255 nm | 261 nm |  | 4.97 µmol/min/mg | 3.7 µmol/min/mg | 2.24 µmol/min/mg | 123 °C | traditional lamellar (L[…]) phase at room temperature and 3D cubic (Pn3m) phase at elevated temperatures above 33 °C | 37 °C Pn3m: 10.40 nm | 25 °C Lα: 6.01 nm | 150-500 nm | significantly smaller tumours | ~10 times | 2.37 |  | Lattice parameter [1, 8]: 37 °C Pn3m: 9.10 nm; Phases [1, 8]: Pn3m; Phases ([1]; in excess water, 37° C., SAXS): 37 °C Pn3m; Phases [1, 9]: RT: Lα; Phases ([1]; neat, SAXS, 25, 37° C.): Smectic; Lattice parameter ([1]; neat, SAXS, 25° C.): 25° C.: 2.99 nm; Lattice parameter ([1]; neat, SAXS, 37° C.): 37° C.: 3.00 nm; Lattice parameter ([1]; neat, XRD, 25° C.): 2.977 nm; Phases ([1]; neat, XRD, 25° C.): Smectic; average 4T1 tumour volume by day 17 (4T1 tumour; 1.5 mmol for each treatment, daily for 17 days): significantly smaller tumour volumes; spleens from animals sacrificed at 17 days (images) (4T1 tumour; FIG. 19): normal spleens; time for tumours to reach a similar size as the other treatment groups after treatment was stopped (4T1 tumour; treatment stopped on day 17): a full week |
| 5′-deoxy-5-fluoro-N^4-(octadecyl-1-oxycarbonyl)cytidine [Prodrug 5-FCSte] |  |  |  |  |  |  |  |  |  |  |  |  |  |  |  | lamellar phases |  |
| 5′-deoxy-5-fluoro-N^4-(cis-9,cis-12-octadecenyl-1-oxycarbonyl)cytidine [Prodrug 5-FCLeo] |  |  |  |  |  |  |  |  |  |  |  |  |  |  |  | fluid isotropic phase | phase at limited hydration ([1]; limited hydration, physiological temperatures): inverse phases |

Further lines, with some results ahead:

| Lyotropic phase behaviour [1] | mean (average) particle size [2] | Average Particle size [2] | Specific Activity (SA) at time t = 24 h [3, 6] | Specific Activity (SA) at time t = 1 h [3, 7] | Specific Activity (SA) at time t = 2 h [3, 7] | Specific Activity (SA) at time t = 6 h [3, 7] | temperature at which decomposition starts (TGA) [4] | Molecule | lyotropic phase behaviour in water penetration scans [1] | Lattice parameter ([1]; in excess water, 37° C., SAXS) | Lattice parameter [1, 9] | particle size distribution [2] | tumours from animals sacrificed at 17 days (images) (4T1 tumour; FIG. 19) | SA relative to 5-FCPal [3] | Specific Activity (SA) at time t = 12 h [3, 6] | phase in excess water ([1]; physiological temperatures) | further results |
| --- | --- | --- | --- | --- | --- | --- | --- | --- | --- | --- | --- | --- | --- | --- | --- | --- | --- |
| Solid lipid | 700 nm | 661 nm | 0.27 µmol/mL | 0.3 µmol/min/mg | 0.38 µmol/min/mg | 0.33 µmol/min/mg | approximately 120 °C | CCCCCCCCCCCCCCCCOC(=O)Nc1nc(=O)n([C@@H]2O[C@H](C)[C@@H](O)[C@H]2O)cc1F [Prodrug 5-FCPal, 5′-deoxy-5-fluoro-N^4-(hexadecyl-1-oxycarbonyl)cytidine] | did not swell |  |  |  |  |  |  |  | Phases ([1]; in excess water, equilibration @ RT 7 Days, RT, 37, 50° C.): Lamellar; d-spacing ([1]; in excess water, equilibration @ RT 7 Days, RT): (2.86 nm); Phases ([1]; without water, RT, 37, 50, 70, 90° C., SAXS confirmed with XRD): Lamellar; d-spacing ([1]; without water, RT): (2.87 nm); time over which hydrolysis continued towards full conversion ([3]; CES 0.5 mg/mL, 37° C.): more than 7 days |
| Hexosome | 164 nm | 219 nm | 1.15 µmol/min/mg | 1.03 µmol/min/mg | 1.3 µmol/min/mg | 0.67 µmol/min/mg | 95 °C | 5′-deoxy-5-fluoro-N^4-(3,7,11,15-tetramethyl-hexadecyl-1-oxycarbonyl)cytidine [Prodrug 5-FCPhy] | 3D inversed bicontinous cubic phase (Pn3m space group) initially and then transform to 2D hexagonal phase | 5.60 nm | RT: H2(5.82 nm) | 100-300 nm | significantly smaller tumours | about 4 times | 0.89 µmol/min/mg |  | Phases ([1]; without water, RT, 37° C., equilibrated): Amorphous; overall tumour volume at day 21 ([5]; 4T1 tumour, oral daily, day 21): second smallest overall tumour volume; behaviour and appearance of the treated mice ([5]; 4T1 tumour-bearing BALB/c mice, oral daily for 21 days): active and healthy; spleens from animals sacrificed at 17 days (images) (4T1 tumour; mouse, in vivo): normal spleens |
|  |  |  |  | 733 µmol/min/mg | 717 µmol/min/mg | 598 µmol/min/mg |  | CCCCCOC(=O)Nc1nc(=O)n([C@@H]2O[C@H](C)[C@@H](O)[C@H]2O)cc1F [Capecitabine, reference compound] |  |  |  |  |  |  |  |  | time to hydrolysis to 5-FC ([3]; 5 mg/ml and 0.5 mg/ml enzyme concentration): ≤ 30 min; enzyme activities (SA) ([3]; obtained from three enzymatic concentrations): 600-900 μmol/min/mg enzyme; Specific Activity (SA) at time t = 0.5 h [3, 7]: 933 µmol/min/mg |
